Laboratory results: patent US10597388B2, “Pyridazinone herbicides” (FMC CORPORATION, priority 2014, dated 2020)
Read-outs that look alike come from different tables or passages of the source.

Legend:
Type in all cases: in vivo
[1] = tested on: pigweed (Amaranthus retroflexus); test: Test A greenhouse herbicide test, pre- and postemergence; conditions: Amaranthus retroflexus, 240 h, 1000 g ai/ha, 0 to 100 scale
In short: (§1)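 Seeds sown in loam–sand blend got a preemergence directed soil spray of compound in non-phytotoxic solvent with surfactant. Postemergence treatment was given at 2–10 cm, one- to two-leaf stage. After ~10 d in greenhouse, injury was rated visually vs untreated controls, 0 (no effect) to 100 (complete control).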

[2] = tested on: wheat (Triticum aestivum); test: as above; conditions: Triticum aestivum, 240 h, 1000 g ai/ha, 0 to 100 scale
In short: as §1

[3] = tested on: foxtail, giant (giant foxtail, Setaria faberii); test: as above; conditions: Setaria faberi, 240 h, 1000 g ai/ha, 0 to 100 scale
In short: as §1

[4] = tested on: morningglory (Ipomoea coccinea); test: Test C greenhouse herbicide test, pre- and postemergence
Description: (§2) Seeds of plant species selected from blackgrass (Alopecurus myosuroides), ryegrass, Italian (Italian ryegrass, Lolium multiflorum), wheat (winter wheat, Triticum aestivum), galium (catchweed bedstraw, Galium aparine), corn (Zea mays), large crabgrass, large (large crabgrass, Digitaria sanguinalis), foxtail, giant (giant foxtail, Setaria faberii), johnsongrass (Sorghum halepense), lambsquarters (Chenopodium album), morningglory (Ipomoea coccinea), nutsedge, yellow (yellow nutsedge, Cyperus esculentus), pigweed (Amaranthus retroflexus), ragweed (common ragweed, Ambrosia elatior), soybean (Glycine max), barnyardgrass (Echinochloa crus-galli), oilseed rape (Brassica napus), waterhemp (common waterhemp, Amaranthus rudis), and velvetleaf (Abutilon theophrasti) were planted into a blend of loam soil and sand and treated preemergence with test chemicals formulated in a non-phytotoxic solvent mixture which included a surfactant.
(§3) At the same time, plants selected from these crop and weed species and also chickweed (common chickweed, Stellaria media), kochia (Kochia scoparia), and oat, wild (wild oat, Avena fatua), were planted in pots containing Redi-Earth® planting medium (Scotts Company, 14111 Scottslawn Road, Marysville, Ohio 43041) comprising spaghnum peat moss, vermiculite, wetting agent and starter nutrients and treated with postemergence applications of test chemicals formulated in the same manner. Plants ranged in height from 2 to 18 cm (1- to 4-leaf stage) for postemergence treatments. Treated plants and controls were maintained in a greenhouse for 13 to 15 d, after which time all species were compared to controls and visually evaluated. Plant response ratings, summarized in Table C, are based on a scale of 0 to 100 where 0 is no effect and 100 is complete control. A dash (-) response means no test result.

[5] = tested on: corn (Zea mays); test: as above
Description: as §2, §3

[6] = tested on: pigweed (Amaranthus retroflexus); test: as above
Description: as §2, §3

[7] = tested on: velvetleaf (Abutilon theophrasti); test: as above
Description: as §2, §3

[8] = tested on: ryegrass, Italian (Italian ryegrass, Lolium multiflorum); test: as above
Description: as §2, §3

[9] = tested on: blackgrass (Alopecurus myosuroides); test: as above
Description: as §2, §3

[10] = post-emergence, Postemergence, 0 is no effect, 100 is complete control, read-out: Pigweed plant response rating
[11] = pre-emergence, Preemergence, 0 no effect, 100 complete control, read-out: Plant response rating, Pigweed
[12] = post-emergence, Postemergence, 0 is no effect, 100 is complete control, read-out: Wheat plant response rating
[13] = pre-emergence, Preemergence, 0 no effect, 100 complete control, read-out: Plant response rating, Wheat
[14] = post-emergence, Postemergence, 0 is no effect, 100 is complete control, read-out: Foxtail, Giant plant response rating
[15] = pre-emergence, Preemergence, 0 no effect, 100 complete control, read-out: Plant response rating, Foxtail, Giant
[16] = Postemergence, 31 g ai/ha, 0 to 100 scale (0 no effect, 100 complete control)
[17] = Postemergence, 125 g ai/ha, scale 0 to 100, 0 is no effect, 100 is complete control
[18] = Postemergence, 250 g ai/ha, scale 0 to 100, 0 no effect, 100 complete control, 13 to 15 d
[19] = Preemergence, 31 g ai/ha, scale 0 to 100, 0 is no effect, 100 is complete control
[20] = Preemergence, 62 g ai/ha, scale 0 to 100, 0 is no effect, 100 is complete control
[21] = Preemergence, 125 g ai/ha, scale 0 to 100, 0 is no effect, 100 is complete control
[22] = Preemergence, 250 g ai/ha, scale 0 to 100, 0 no effect, 100 complete control
[23] = postemergence, 62 g ai/ha, scale 0 to 100, 0 no effect, 100 complete control

CCc1oc2ccc(C)cc2c1-c1c(O)c(C)nn(C)c1=O [Compound 10, 4-(2-ethyl-5-methyl-3-benzofuranyl)-5-hydroxy-2,6-dimethyl-3(2H)-pyridazinone]
pest or weed control at 1000 g/ha [1, 10]: 90%
pest or weed control at 1000 g/ha [1, 11]: 100%
plant injury at 1000 g/ha [2, 12]: 0%
plant injury at 1000 g/ha [2, 13]: 0%
pest or weed control at 1000 g/ha [3, 14]: 80%
pest or weed control at 1000 g/ha [3, 15]: 100%
Morningglory plant response rating [4, 16]: 55
Plant response rating, Morningglory [4, 17]: 100
Plant response rating, Morningglory [4, 18]: 100
Plant response rating, Morningglory [4, 19]: 0
Plant response rating, Morningglory [4, 20]: 0
Plant response rating, Morningglory [4, 21]: 25
Morningglory plant response rating [4, 22]: 55
Morningglory plant response rating [4, 23]: 90
Corn plant response rating [5, 16]: 0
Plant response rating, Corn [5, 17]: 5
Plant response rating, Corn [5, 18]: 5
Plant response rating, Corn [5, 19]: 0
Plant response rating, Corn [5, 20]: 0
Plant response rating, Corn [5, 21]: 0
Corn plant response rating [5, 22]: 5
Corn plant response rating [5, 23]: 0
Pigweed plant response rating [6, 16]: 55
Plant response rating, Pigweed [6, 17]: 70
Plant response rating, Pigweed [6, 18]: 95
Plant response rating, Pigweed [6, 19]: 0
Plant response rating, Pigweed [6, 20]: 0
Plant response rating, Pigweed [6, 21]: 10
Pigweed plant response rating [6, 22]: 30
Pigweed plant response rating [6, 23]: 60
Velvetleaf plant response rating [7, 16]: 40
Plant response rating, Velvetleaf [7, 17]: 40
Plant response rating, Velvetleaf [7, 18]: 70
Plant response rating, Velvetleaf [7, 20]: 0
Plant response rating, Velvetleaf [7, 21]: 10
Velvetleaf plant response rating [7, 22]: 50
Velvetleaf plant response rating [7, 23]: 45
Ryegrass, Italian plant response rating [8, 16]: 5
Plant response rating, Ryegrass, Italian [8, 17]: 20
Plant response rating, Ryegrass, Italian [8, 18]: 55
Plant response rating, Ryegrass, Italian [8, 19]: 0
Plant response rating, Ryegrass, Italian [8, 20]: 0
Plant response rating, Ryegrass, Italian [8, 21]: 25
Ryegrass, Italian plant response rating [8, 22]: 80
Ryegrass, Italian plant response rating [8, 23]: 5
Blackgrass plant response rating [9, 16]: 0
Plant response rating, Blackgrass [9, 17]: 10
Plant response rating, Blackgrass [9, 18]: 15
Plant response rating, Blackgrass [9, 19]: 0
Plant response rating, Blackgrass [9, 20]: 0
Plant response rating, Blackgrass [9, 21]: 0
Blackgrass plant response rating [9, 22]: 0
Blackgrass plant response rating [9, 23]: 0

Cc1nn(C)c(=O)c(-c2cccc3ccccc23)c1O [Compound 11, 5-hydroxy-2,6-dimethyl-4-(1-naphthalenyl)-3(2H)-pyridazinone]
pest or weed control at 1000 g/ha [1, 10]: 90%
pest or weed control at 1000 g/ha [1, 11]: 100%
plant injury at 1000 g/ha [2, 12]: 60%
plant injury at 1000 g/ha [2, 13]: 50%
pest or weed control at 1000 g/ha [3, 14]: 90%
pest or weed control at 1000 g/ha [3, 15]: 90%
Morningglory plant response rating [4, 16]: 70
Plant response rating, Morningglory [4, 17]: 90
Plant response rating, Morningglory [4, 18]: 98
Plant response rating, Morningglory [4, 19]: 100
Plant response rating, Morningglory [4, 20]: 100
Plant response rating, Morningglory [4, 21]: 100
Morningglory plant response rating [4, 22]: 100
Morningglory plant response rating [4, 23]: 80
Corn plant response rating [5, 16]: 0
Plant response rating, Corn [5, 17]: 0
Plant response rating, Corn [5, 18]: 0
Plant response rating, Corn [5, 19]: 0
Plant response rating, Corn [5, 20]: 0
Plant response rating, Corn [5, 21]: 0
Corn plant response rating [5, 22]: 0
Corn plant response rating [5, 23]: 0
Pigweed plant response rating [6, 16]: 50
Plant response rating, Pigweed [6, 17]: 90
Plant response rating, Pigweed [6, 18]: 95
Plant response rating, Pigweed [6, 19]: 0
Plant response rating, Pigweed [6, 20]: 100
Plant response rating, Pigweed [6, 21]: 100
Pigweed plant response rating [6, 22]: 100
Pigweed plant response rating [6, 23]: 90
Velvetleaf plant response rating [7, 16]: 0
Plant response rating, Velvetleaf [7, 17]: 45
Plant response rating, Velvetleaf [7, 18]: 80
Plant response rating, Velvetleaf [7, 20]: 10
Plant response rating, Velvetleaf [7, 21]: 90
Velvetleaf plant response rating [7, 22]: 90
Velvetleaf plant response rating [7, 23]: 5
Ryegrass, Italian plant response rating [8, 16]: 70
Plant response rating, Ryegrass, Italian [8, 17]: 90
Plant response rating, Ryegrass, Italian [8, 18]: 90
Plant response rating, Ryegrass, Italian [8, 19]: 90
Plant response rating, Ryegrass, Italian [8, 20]: 95
Plant response rating, Ryegrass, Italian [8, 21]: 100
Ryegrass, Italian plant response rating [8, 22]: 100
Ryegrass, Italian plant response rating [8, 23]: 70
Blackgrass plant response rating [9, 16]: 5
Plant response rating, Blackgrass [9, 17]: 30
Plant response rating, Blackgrass [9, 18]: 75
Plant response rating, Blackgrass [9, 19]: 35
Plant response rating, Blackgrass [9, 20]: 40
Plant response rating, Blackgrass [9, 21]: 50
Blackgrass plant response rating [9, 22]: 85
Blackgrass plant response rating [9, 23]: 15
